Earlier results, collected in patent US20100317740A1, “Method for Predicting Response to Tamoxifen” (GEORGE MASON INTELLECTUAL PROPERTIES, INC., priority 2007, published 2010).

Test system: node negative breast cancer with estrogen receptor on tumors
Settings: women with node negative breast cancer and estrogen receptor on their tumors

CC/C(=C(\c1ccccc1)c1ccc(OCCN(C)C)cc1)c1ccccc1 [Tamoxifen]
eligible women who do not respond to Tamoxifen therapy: 30-40%
